Publication PMC5218480 (PLoS ONE, 2017)

Test system: MV-4-11 cells
Test: Gene expression microarray analysis (Affymetrix PrimeView) and GSEA
Type: cell-based, human
Set-up: RFU PODN (11730768_x_at) / Fold change /veh PODN (11730768_x_at) / RFU LINC00158 (11744669_a_at) / Fold change /veh LINC00158 (11744669_a_at) / RFU DUSP10 (11751237_a_at) / Fold change /veh DUSP10 (11751237_a_at) / RFU ID3 (11757404_x_at) / Fold change /veh ID3 (11757404_x_at) / RFU PLEKHG5 (11737974_s_at) / Fold change /veh PLEKHG5 (11737974_s_at) / RFU LRRC4B (11730491_at) / Fold change /veh LRRC4B (11730491_at) / RFU GIMAP4 (11747438_a_at) / Fold change /veh GIMAP4 (11747438_a_at) / RFU KRT8 (11758183_x_at) / Fold change /veh KRT8 (11758183_x_at) / RFU CNN1 (11734310_a_at) / Fold change /veh CNN1 (11734310_a_at) / RFU VPS37D (11726825_at) / Fold change /veh VPS37D (11726825_at) / RFU C10orf10 (11716522_x_at) / Fold change /veh C10orf10 (11716522_x_at) / RFU KIR2DL2 /// KIR2DL4 /// KIR2DL5A /// KIR2DL5B /// KIR2DS1 /// KIR2DS2 /// KIR2DS3 /// KIR2DS4 /// KIR3DL3 /// KIR3DL3 /// KIR3DS1 (11738374_at) / Fold change /veh KIR2DL2 /// KIR2DL4 /// KIR2DL5A /// KIR2DL5B /// KIR2DS1 /// KIR2DS2 /// KIR2DS3 /// KIR2DS4 /// KIR3DL3 /// KIR3DL3 /// KIR3DS1 (11738374_at) / RFU C1QL1 (11718748_at) / Fold change /veh C1QL1 (11718748_at) / RFU TMPRSS4 (11747572_a_at) / Fold change /veh TMPRSS4 (11747572_a_at) / RFU HAMP (11756126_x_at) / Fold change /veh HAMP (11756126_x_at) / RFU RNFT2 (11725882_a_at) / Fold change /veh RNFT2 (11725882_a_at) / RFU NR4A2 (11747474_a_at) / Fold change /veh NR4A2 (11747474_a_at) / RFU ABCC12 (11746883_a_at) / Fold change /veh ABCC12 (11746883_a_at) / RFU TMEM136 (11760407_x_at) / Fold change /veh TMEM136 (11760407_x_at) / RFU CLDN22 /// WWC2 (11732394_at) / Fold change /veh CLDN22 /// WWC2 (11732394_at) / RFU HLA-DPB1 (11760878_x_at) / Fold change /veh HLA-DPB1 (11760878_x_at) / RFU SPINT1 (11716480_a_at) / Fold change /veh SPINT1 (11716480_a_at) / RFU GAP43 (11754022_s_at) / Fold change /veh GAP43 (11754022_s_at) / RFU A4GNT (11735810_at) / Fold change /veh A4GNT (11735810_at) / RFU PRB3 (11715151_x_at) / Fold change /veh PRB3 (11715151_x_at) / RFU TUBB4B (11761932_at) / Fold change /veh TUBB4B (11761932_at) / RFU CAPN14 (11732068_a_at) / Fold change /veh CAPN14 (11732068_a_at) / RFU TMCC2 (11721928_a_at) / Fold change /veh TMCC2 (11721928_a_at) / RFU IRGQ (11745062_a_at) / Fold change /veh IRGQ (11745062_a_at) / RFU FAM174B (11720279_a_at) / Fold change /veh FAM174B (11720279_a_at) / RFU TMPRSS4 (11748680_a_at) / Fold change /veh TMPRSS4 (11748680_a_at) / RFU FAM212B (11763350_a_at) / Fold change /veh FAM212B (11763350_a_at) / RFU PLEKHG5 (11743358_a_at) / Fold change /veh PLEKHG5 (11743358_a_at) / RFU ZSCAN30 (11745921_a_at) / Fold change /veh ZSCAN30 (11745921_a_at) / RFU CMKLR1 (11741424_a_at) / Fold change /veh CMKLR1 (11741424_a_at) / RFU LOC101060620 /// MAPK8IP1 (11723275_at) / Fold change /veh LOC101060620 /// MAPK8IP1 (11723275_at) / RFU SPTSSB (11747773_x_at) / Fold change /veh SPTSSB (11747773_x_at) / RFU PRSS12 (11739890_at) / Fold change /veh PRSS12 (11739890_at) / RFU BIN1 (11741810_x_at) / Fold change /veh BIN1 (11741810_x_at) / RFU WNT11 (11732464_a_at) / Fold change /veh WNT11 (11732464_a_at) / RFU C10orf10 (11716521_a_at) / Fold change /veh C10orf10 (11716521_a_at) / RFU C5orf56 (11738089_at) / Fold change /veh C5orf56 (11738089_at) / RFU CYB561 (11721691_x_at) / Fold change /veh CYB561 (11721691_x_at) / RFU ANKRD19P (11752326_a_at) / Fold change /veh ANKRD19P (11752326_a_at) / RFU OR2T12 /// OR2T33 /// OR2T8 (11738714_s_at) / Fold change /veh OR2T12 /// OR2T33 /// OR2T8 (11738714_s_at) / RFU VCAN (11748164_a_at) / Fold change /veh VCAN (11748164_a_at) / RFU JSRP1 (11732532_at) / Fold change /veh JSRP1 (11732532_at) / RFU KRTAP10-11 (11738290_x_at) / Fold change /veh KRTAP10-11 (11738290_x_at) / RFU MYO3A (11730013_a_at) / Fold change /veh MYO3A (11730013_a_at) / RFU EBF3 (11725865_a_at) / Fold change /veh EBF3 (11725865_a_at) / RFU CAMK2N1 (11719241_x_at) / Fold change /veh CAMK2N1 (11719241_x_at) / RFU C5orf56 (11738088_a_at) / Fold change /veh C5orf56 (11738088_a_at) / RFU OLFML3 (11715873_a_at) / Fold change /veh OLFML3 (11715873_a_at) / RFU LOC100653217 /// NTM (11731650_a_at) / Fold change /veh LOC100653217 /// NTM (11731650_a_at) / RFU MAPK11 (11762145_a_at) / Fold change /veh MAPK11 (11762145_a_at) / RFU FIZ1 (11724087_x_at) / Fold change /veh FIZ1 (11724087_x_at) / RFU OASL (11726364_x_at) / Fold change /veh OASL (11726364_x_at) / RFU SOX15 (11748057_x_at) / Fold change /veh SOX15 (11748057_x_at) / RFU CD79A (11719716_a_at) / Fold change /veh CD79A (11719716_a_at) / RFU HIST1H1D (11736915_at) / Fold change /veh HIST1H1D (11736915_at) / RFU CASKIN2 (11723855_a_at) / Fold change /veh CASKIN2 (11723855_a_at) / RFU LOC730098 (11760151_x_at) / Fold change /veh LOC730098 (11760151_x_at) / RFU OR4N2 (11742367_at) / Fold change /veh OR4N2 (11742367_at) / RFU PRRT2 (11749266_a_at) / Fold change /veh PRRT2 (11749266_a_at) / RFU SNX32 (11753110_a_at) / Fold change /veh SNX32 (11753110_a_at) / RFU CDHR5 (11726645_a_at) / Fold change /veh CDHR5 (11726645_a_at) / RFU RCAN1 (11760418_a_at) / Fold change /veh RCAN1 (11760418_a_at) / RFU FAM167A (11723789_a_at) / Fold change /veh FAM167A (11723789_a_at) / RFU FAM26E (11764081_at) / Fold change /veh FAM26E (11764081_at) / RFU ISYNA1 (11749810_s_at) / Fold change /veh ISYNA1 (11749810_s_at) / RFU ACY1 (11761880_at) / Fold change /veh ACY1 (11761880_at) / RFU 11764098_at / Fold change /veh 11764098_at / RFU SAMD14 (11745864_x_at) / Fold change /veh SAMD14 (11745864_x_at) / RFU NPB (11741838_a_at) / Fold change /veh NPB (11741838_a_at) / RFU TMPRSS6 (11731388_a_at) / Fold change /veh TMPRSS6 (11731388_a_at) / RFU KRTAP10-2 (11738614_at) / Fold change /veh KRTAP10-2 (11738614_at) / RFU ARHGAP8 /// PRR5-ARHGAP8 (11727945_x_at) / Fold change /veh ARHGAP8 /// PRR5-ARHGAP8 (11727945_x_at) / RFU KRTAP5-7 /// NADSYN1 (11734609_at) / Fold change /veh KRTAP5-7 /// NADSYN1 (11734609_at) / RFU RASL12 (11751679_a_at) / Fold change /veh RASL12 (11751679_a_at) / RFU CDKN2B (11736163_a_at) / Fold change /veh CDKN2B (11736163_a_at) / RFU PRF1 (11729649_at) / Fold change /veh PRF1 (11729649_at) / RFU, ZNF638 /// ZNF638-IT1 / Fold change vs veh, ZNF638 /// ZNF638-IT1 / RFU, PANK3 / Fold change vs veh, PANK3 / RFU, SH3YL1 / Fold change vs veh, SH3YL1 / RFU, ZEB2 / Fold change vs veh, ZEB2 / RFU, NRIP1 / Fold change vs veh, NRIP1 / RFU, PTTG1IP / Fold change vs veh, PTTG1IP / RFU, CAPN2 / Fold change vs veh, CAPN2 / RFU, MED14 / Fold change vs veh, MED14 / RFU, SNORA58 / Fold change vs veh, SNORA58 / RFU, C1orf63 / Fold change vs veh, C1orf63 / RFU, LRRFIP1 / Fold change vs veh, LRRFIP1 / RFU, NDUFAF7 / Fold change vs veh, NDUFAF7 / RFU, SLC12A2 / Fold change vs veh, SLC12A2 / RFU, IBTK / Fold change vs veh, IBTK / RFU, ESF1 / Fold change vs veh, ESF1 / Fold change vs veh, TMEM50B / RFU, TAOK1 / Fold change vs veh, TAOK1 / RFU, ACBD3 / Fold change vs veh, ACBD3 / RFU, TMA16 / Fold change vs veh, TMA16 / RFU, RWDD3 / Fold change vs veh, RWDD3 / RFU, BCAT1 / Fold change vs veh, BCAT1 / RFU, EDEM3 / Fold change vs veh, EDEM3 / RFU, TMEM33 / Fold change vs veh, TMEM33 / RFU, WDR75 / Fold change vs veh, WDR75 / RFU, AHCTF1 / Fold change vs veh, AHCTF1 / RFU, TFRC / Fold change vs veh, TFRC / RFU, ZDHHC17 / Fold change vs veh, ZDHHC17 / RFU, NOM1 / Fold change vs veh, NOM1 / RFU, ARL8B / Fold change vs veh, ARL8B / RFU, ZBTB11 / Fold change vs veh, ZBTB11 / RFU, TAMM41 / Fold change vs veh, TAMM41 / RFU, KIAA1704 /// LOC100996395 / Fold change vs veh, KIAA1704 /// LOC100996395 / RFU, ING1 / Fold change vs veh, ING1 / RFU, TRMT61B / Fold change vs veh, TRMT61B / RFU, FUBP3 / Fold change vs veh, FUBP3 / RFU, TP53 / Fold change vs veh, TP53 / RFU, TNKS2 / Fold change vs veh, TNKS2 / RFU, ZFP14 / Fold change vs veh, ZFP14 / RFU, ACTR2 / Fold change vs veh, ACTR2 / RFU, PPP3R1 / Fold change vs veh, PPP3R1 / RFU, PIK3R1 / Fold change vs veh, PIK3R1 / RFU, HNRNPA1 / Fold change vs veh, HNRNPA1 / RFU, RNF170 / Fold change vs veh, RNF170 / RFU, ZNF28 / Fold change vs veh, ZNF28 / RFU, RNGTT / Fold change vs veh, RNGTT / RFU, OGT / Fold change vs veh, OGT / RFU, BRD1 / Fold change vs veh, BRD1 / RFU, MARS / Fold change vs veh, MARS / RFU, ZNF655 / Fold change vs veh, ZNF655 / RFU, FAHD1 / Fold change vs veh, FAHD1 / RFU, BDP1 / Fold change vs veh, BDP1 / RFU, LRRCC1 / Fold change vs veh, LRRCC1 / RFU, ARID1A / Fold change vs veh, ARID1A / RFU, ZNF146 / Fold change vs veh, ZNF146 / RFU, ZNF330 / Fold change vs veh, ZNF330 / RFU, GPN3 / Fold change vs veh, GPN3 / RFU, C9orf123 / Fold change vs veh, C9orf123 / RFU, N4BP2L2 / Fold change vs veh, N4BP2L2 / RFU, ARFIP1 / Fold change vs veh, ARFIP1 / RFU, FAM179B / Fold change vs veh, FAM179B / RFU, BCL10 / Fold change vs veh, BCL10 / RFU, UHRF1BP1L / Fold change vs veh, UHRF1BP1L / RFU, BET1 / Fold change vs veh, BET1 / RFU, CNOT2 / Fold change vs veh, CNOT2 / RFU, ZNF268 / Fold change vs veh, ZNF268 / Fold change vs veh, ZNF507 / RFU, DGCR2 / Fold change vs veh, DGCR2 / RFU, WDSUB1 / Fold change vs veh, WDSUB1 / Fold change vs veh, HSP90B1 /// MIR3652 / RFU, ADSS / Fold change vs veh, ADSS / RFU, GK / Fold change vs veh, GK / RFU, ZNF148 / Fold change vs veh, ZNF148 / RFU, TAF9 / Fold change vs veh, TAF9 / RFU, SLC1A5 / Fold change vs veh, SLC1A5 / RFU, SLMO2 / Fold change vs veh, SLMO2 / RFU, ABCC4 / Fold change vs veh, ABCC4 / RFU, LOC101060439 /// RAP1B / Fold change vs veh, LOC101060439 /// RAP1B / RFU, RFX7 / Fold change vs veh, RFX7 / RFU, GTPBP10 / Fold change vs veh, GTPBP10 / RFU, CNEP1R1 / Fold change vs veh, CNEP1R1 / RFU, BIVM-ERCC5 /// ERCC5 / Fold change vs veh, BIVM-ERCC5 /// ERCC5 / RFU, ILF3 / Fold change vs veh, ILF3 / RFU 11762660_at / Fold change /veh 11762660_at / RFU VCAN (11757783_s_at) / Fold change /veh VCAN (11757783_s_at) / RFU DDX43 (11728927_at) / Fold change /veh DDX43 (11728927_at) / RFU KRT8 (11758188_x_at) / Fold change /veh KRT8 (11758188_x_at) / RFU NKD1 (11759106_at) / Fold change /veh NKD1 (11759106_at) / RFU SRD5A1 (11742802_a_at) / Fold change /veh SRD5A1 (11742802_a_at) / RFU TPSAB1 /// TPSB2 (11721975_s_at) / Fold change /veh TPSAB1 /// TPSB2 (11721975_s_at) / RFU GSTM3 (11746129_a_at) / Fold change /veh GSTM3 (11746129_a_at) / RFU IL23R (11737362_x_at) / Fold change /veh IL23R (11737362_x_at) / RFU TMEM51 (11727254_a_at) / Fold change /veh TMEM51 (11727254_a_at) / RFU PIWIL2 (11732686_x_at) / Fold change /veh PIWIL2 (11732686_x_at) / RFU ORM1 (11744905_x_at) / Fold change /veh ORM1 (11744905_x_at) / RFU CCDC152 (11743942_at) / Fold change /veh CCDC152 (11743942_at) / RFU ECM1 (11717891_a_at) / Fold change /veh ECM1 (11717891_a_at) / RFU IL23R (11748794_a_at) / Fold change /veh IL23R (11748794_a_at) / RFU TNFAIP8L3 (11732012_x_at) / Fold change /veh TNFAIP8L3 (11732012_x_at) / RFU MBOAT4 (11741988_at) / Fold change /veh MBOAT4 (11741988_at) / RFU 11764193_at / Fold change /veh 11764193_at / RFU TMEM53 (11763286_at) / Fold change /veh TMEM53 (11763286_at) / RFU MAGEB2 (11727129_at) / Fold change /veh MAGEB2 (11727129_at) / RFU TMEM200A (11744735_a_at) / Fold change /veh TMEM200A (11744735_a_at) / RFU CCDC152 (11751479_a_at) / Fold change /veh CCDC152 (11751479_a_at) / RFU FAM211A (11726209_a_at) / Fold change /veh FAM211A (11726209_a_at) / RFU RGS16 (11746705_a_at) / Fold change /veh RGS16 (11746705_a_at) / RFU VCAN (11755009_s_at) / Fold change /veh VCAN (11755009_s_at) / RFU RHOB (11743442_s_at) / Fold change /veh RHOB (11743442_s_at) / RFU RGS16 (11720943_a_at) / Fold change /veh RGS16 (11720943_a_at) / RFU RGS16 (11720944_at) / Fold change /veh RGS16 (11720944_at) / RFU, VPS4B / Fold change vs veh, VPS4B / RFU, CREB1 / Fold change vs veh, CREB1 / RFU, DNAJC13 / Fold change vs veh, DNAJC13 / RFU, GNAQ / Fold change vs veh, GNAQ / RFU, CDK5R1 / Fold change vs veh, CDK5R1 / RFU, ZRANB3 / Fold change vs veh, ZRANB3 / RFU, CUL4A / Fold change vs veh, CUL4A / RFU, CCNY / Fold change vs veh, CCNY / RFU, UFL1 / Fold change vs veh, UFL1 / RFU, COG3 / Fold change vs veh, COG3 / RFU, DIAPH2 / Fold change vs veh, DIAPH2 / RFU, SKA2 / Fold change vs veh, SKA2 / RFU, AFF3 / Fold change vs veh, AFF3 / RFU, LMF1 / Fold change vs veh, LMF1 / RFU, IPO11 / Fold change vs veh, IPO11 / RFU, DFFB / Fold change vs veh, DFFB / RFU, FOXP1 / Fold change vs veh, FOXP1 / RFU, CARD8 / Fold change vs veh, CARD8 / RFU, STRN3 / Fold change vs veh, STRN3 / RFU, ADK / Fold change vs veh, ADK / RFU, RASSF2 / Fold change vs veh, RASSF2 / RFU, WIPF1 / Fold change vs veh, WIPF1 / RFU, LARP1B / Fold change vs veh, LARP1B / RFU, RASA1 / Fold change vs veh, RASA1 / RFU, RB1 / Fold change vs veh, RB1 / RFU, PPFIA1 / Fold change vs veh, PPFIA1 / RFU, MAT2A / Fold change vs veh, MAT2A / RFU, CCT5 / Fold change vs veh, CCT5 / RFU, WDR92 / Fold change vs veh, WDR92 / RFU, CUX1 / Fold change vs veh, CUX1 / RFU, TTC7A / Fold change vs veh, TTC7A / RFU, TMEM135 / Fold change vs veh, TMEM135 / RFU, DEPTOR / Fold change vs veh, DEPTOR / RFU, CPM / Fold change vs veh, CPM / RFU, DNAJB6 / Fold change vs veh, DNAJB6 / RFU, CACNA2D3 / Fold change vs veh, CACNA2D3 / RFU, DTX4 / Fold change vs veh, DTX4 / RFU, TFCP2 / Fold change vs veh, TFCP2 / RFU, GMCL1 /// GMCL1P1 / Fold change vs veh, GMCL1 /// GMCL1P1 / RFU, AEBP2 / Fold change vs veh, AEBP2 / RFU, SNHG1 /// SNORD22 /// SNORD25 /// SNORD26 /// SNORD27 /// SNORD28 /// SNORD29 /// SNORD31 / Fold change vs veh, SNHG1 /// SNORD22 /// SNORD25 /// SNORD26 /// SNORD27 /// SNORD28 /// SNORD29 /// SNORD31 / Fold change (Aza/veh), C12orf56 (ProbeSet 11735607_a_at) / Fold change (ACY-1035/veh), C12orf56 (ProbeSet 11735607_a_at) / Fold change (Aza/veh), FGFR1OP (ProbeSet 11751329_s_at) / Fold change (ACY-1035/veh), FGFR1OP (ProbeSet 11751329_s_at) / Fold change (Aza/veh), VPS36 (ProbeSet 11739960_a_at) / Fold change (ACY-1035/veh), VPS36 (ProbeSet 11739960_a_at) / RFU SYPL1 (11715823_x_at) / Fold change /veh SYPL1 (11715823_x_at) / RFU IGFBP7 (11715501_s_at) / Fold change /veh IGFBP7 (11715501_s_at) / RFU REEP3 (11722064_at) / Fold change /veh REEP3 (11722064_at) / RFU IGLL1 (11728026_x_at) / Fold change /veh IGLL1 (11728026_x_at): dose or concentration left out as unconfirmed
Conditions: MV-4-11 cells, 48 hours

## Nc1ccc(-c2cccs2)cc1NC(=O)c1ccc2c(c1)cc(C1CC1)n2CCN1CCOCC1 [ACY-1035]
  Fold change /veh CMKLR1 (11741424_a_at): 1.11
